Publication PMC11945486, “TAS1R2/TAS1R3 Single-Nucleotide Polymorphisms Affect Sweet Taste Receptor Activation by Sweeteners: The SWEET Project” (Nutrients, 2025)
Like-named read-outs stand apart in the source and are kept apart here. Blank lines part the entries; values can stand above or below the molecule they belong to. No end group written: not given here.

Molecular target: T1, human TAS1R2-WT/TAS1R3-F749S (Homo sapiens, UniProt Q7RTX0+Q8TE23, F749S)
T1 construct: expressed in transfected cells; host or cells: HEK293T stably expressing Gα16gust44
T1 sequence (Q8TE23 20-839): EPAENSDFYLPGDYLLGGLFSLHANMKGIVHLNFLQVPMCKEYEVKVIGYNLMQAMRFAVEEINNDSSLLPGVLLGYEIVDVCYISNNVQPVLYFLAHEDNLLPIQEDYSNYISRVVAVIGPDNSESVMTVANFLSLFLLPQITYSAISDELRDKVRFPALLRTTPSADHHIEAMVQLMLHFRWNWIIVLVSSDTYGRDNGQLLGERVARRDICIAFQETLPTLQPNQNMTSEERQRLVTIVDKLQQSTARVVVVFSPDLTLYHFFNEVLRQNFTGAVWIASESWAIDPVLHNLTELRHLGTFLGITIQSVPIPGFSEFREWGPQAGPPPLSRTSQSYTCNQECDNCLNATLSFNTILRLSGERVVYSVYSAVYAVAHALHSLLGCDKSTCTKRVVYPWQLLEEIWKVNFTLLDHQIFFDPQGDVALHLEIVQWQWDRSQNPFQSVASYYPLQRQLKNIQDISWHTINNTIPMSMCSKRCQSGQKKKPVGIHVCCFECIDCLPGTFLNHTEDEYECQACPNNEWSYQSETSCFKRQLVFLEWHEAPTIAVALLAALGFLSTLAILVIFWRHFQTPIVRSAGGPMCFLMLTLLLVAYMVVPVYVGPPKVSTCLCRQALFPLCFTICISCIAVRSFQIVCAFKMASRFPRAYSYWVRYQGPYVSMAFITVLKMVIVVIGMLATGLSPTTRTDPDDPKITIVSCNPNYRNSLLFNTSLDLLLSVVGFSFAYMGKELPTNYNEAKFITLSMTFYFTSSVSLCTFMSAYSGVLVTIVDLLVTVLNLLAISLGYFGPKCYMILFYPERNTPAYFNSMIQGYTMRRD
T1 sequence (Q7RTX0 21-852 F749S): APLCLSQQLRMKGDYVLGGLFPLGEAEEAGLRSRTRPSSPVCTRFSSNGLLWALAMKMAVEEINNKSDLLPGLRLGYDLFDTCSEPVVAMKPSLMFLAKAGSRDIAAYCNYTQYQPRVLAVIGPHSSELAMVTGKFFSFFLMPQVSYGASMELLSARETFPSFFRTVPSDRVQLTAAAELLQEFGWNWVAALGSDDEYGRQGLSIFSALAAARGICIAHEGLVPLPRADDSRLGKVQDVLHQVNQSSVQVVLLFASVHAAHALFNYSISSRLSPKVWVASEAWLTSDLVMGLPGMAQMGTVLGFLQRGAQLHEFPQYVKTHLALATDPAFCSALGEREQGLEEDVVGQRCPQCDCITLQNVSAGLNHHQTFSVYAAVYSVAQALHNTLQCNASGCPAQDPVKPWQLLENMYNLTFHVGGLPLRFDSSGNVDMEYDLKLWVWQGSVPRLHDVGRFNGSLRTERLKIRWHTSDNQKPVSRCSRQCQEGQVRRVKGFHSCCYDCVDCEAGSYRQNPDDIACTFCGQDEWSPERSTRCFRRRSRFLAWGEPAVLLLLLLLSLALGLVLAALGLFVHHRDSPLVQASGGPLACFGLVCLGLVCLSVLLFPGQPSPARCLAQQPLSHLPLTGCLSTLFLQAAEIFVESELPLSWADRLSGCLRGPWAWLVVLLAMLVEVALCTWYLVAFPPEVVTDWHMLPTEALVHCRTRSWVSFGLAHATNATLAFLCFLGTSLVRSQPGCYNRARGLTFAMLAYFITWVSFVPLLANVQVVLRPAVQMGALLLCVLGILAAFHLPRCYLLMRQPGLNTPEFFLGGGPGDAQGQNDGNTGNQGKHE
Assay: Calcium mobilisation assay, TAS1R2-WT with TAS1R3 variant F749S
Format: cell-based
Settings: for Max ΔF/F0: maximal signal amplitude
Description: The coding sequences for TAS1R2 and TAS1R3 were commercially synthesised, and the human codon was optimised for expression in human cells. The coding sequences of human TAS1R2 and TAS1R3 were subcloned and inserted into the mammalian expression vectors pcDNA6/myc-HisA and pcDNA4/myc-HisA (Invitrogen; Thermo Fisher Scientific; Illkirch, France) between the EcoRI and NotI restriction sites, generating the plasmids pcDNA6-TAS1R2 and pcDNA4-TAS1R3, respectively. To increase protein expression in mammalian cells, an upstream start codon was used, which was a sequence called MAX, corresponding to the QBI SP163 element also described in pcDNA4-HisMax (Invitrogen; Thermo Fisher Scientific; Illkirch, France). To measure the expression level of the receptor by immunohistochemistry, we used the FLAG sequence ([…]) in the C-terminal position, which encodes the FLAG tag epitope. SNP variants of TAS1R2 and TAS1R3 were constructed based on […], respectively, using site-directed mutagenesis (Genewiz; Leipzig, Germany).
The HEK293T cells were kindly provided by Jay P. Slack (Givaudan Flavors Corporation; Cincinnati, OH, USA). HEK293T cells stably transfected with Gα16gust44 [43, 67] were seeded in poly-D-lysine-coated clear-bottom black 96-well plates (0.35 × 10^5 cells/well) in high-glucose DMEM supplemented with 2 mM GlutaMAX, 10% dialysed foetal bovine serum with penicillin/streptomycin and G418 (400 μg/mL) at 37 °C and 6.3% CO2 in a humidified atmosphere as previously reported. […] As a negative control, HEK293T cells were mock-transfected with the empty expression vector. After a further 24 h of incubation, the HEK293T cells were washed with C1 buffer (130 mM NaCl, 5 mM KCl, 10 mM HEPES pH 7.4 and 2 mM CaCl2). The 96-well plates containing the cells were then stimulated with sweet-tasting compounds. […] Different concentration ranges were tested depending on the sweet compound injected. The Ca^2+ changes were expressed as fractional changes in fluorescent light intensity: ΔF/F = (F − F0)/F0, where F was the fluorescent light intensity at each point, and F0 was the value of emitted fluorescent light prior to stimulus application. To calculate dose–response relationships, the changes in fluorescence upon stimulus application were averaged, mock-subtracted and baseline-corrected. The dose–response data obtained were adjusted using a 4-parameter logistic equation. The half-maximal effective concentrations (EC50 values) and maximal signal amplitudes were calculated using SigmaPlot software (version 15.0) (Systat Software; San Jose, CA, USA).
For in vitro calcium mobilisation assay performed on hTAS1R2-SNPs, hTAS1R3-SNPs and mTAS1R3-I60T, 6 to 7 concentrations were tested for each sweet compound, plus buffer alone. All concentration–receptor combinations were measured in duplicate, and each experiment was repeated at least 4 times (8 wells/concentration). Results were expressed for each concentration as ΔF/F mean ± SEM and represented as dose–response curves.

Molecule: CC1=CC(=O)NS(=O)(=O)O1 [Acesulfame K, acesulfame K]
R1 = Variant EC50/WT EC50: 0.7 | Max ΔF/F0: 0.04 ± 0.01 | EC50 (read-out: EC50): 410 ± 242 µM

Molecule: O=S(=O)(O)NC1CCCCC1 [Cyclamate, cyclamate]
EC50 (read-out: EC50): 3430 ± 1990 µM

Molecule: C[C@H](CC[C@@H](O[C@@H]1O[C@H](CO[C@@H]2O[C@H](CO)[C@@H](O)[C@H](O)[C@H]2O)[C@@H](O)[C@H](O)[C@H]1O[C@@H]1O[C@H](CO)[C@@H](O)[C@H](O)[C@H]1O)C(C)(C)O)[C@H]1CC[C@@]2(C)[C@@H]3CC=C4[C@@H](CC[C@H](O[C@@H]5O[C@H](CO[C@@H]6O[C@H](CO)[C@@H](O)[C@H](O)[C@H]6O)[C@@H](O)[C@H](O)[C@H]5O)C4(C)C)[C@]3(C)[C@H](O)C[C@]12C [Mogroside V, mogroside V]
R1 = Variant EC50/WT EC50: 2.1 | Max ΔF/F0: 0.47 ± 0.02 | EC50 (read-out: EC50): 65.5 ± 5.4 µM

Molecule: COc1ccc(CCC(=O)c2c(O)cc(O[C@@H]3O[C@H](CO)[C@@H](O)[C@H](O)[C@H]3O[C@@H]3O[C@@H](C)[C@H](O)[C@@H](O)[C@H]3O)cc2O)cc1O [NHDC, neohesperidin dihydrochalcone]
R1 = Variant EC50/WT EC50: 3.0 | Max ΔF/F0: 0.29 ± 0.01 | EC50 (read-out: EC50): 150 ± 19.6 µM

Molecule: COC(=O)[C@H](Cc1ccccc1)NC(=O)[C@H](CC(=O)O)NCCC(C)(C)C [Neotame]
R1 = Variant EC50/WT EC50: 1.5 | Max ΔF/F0: 0.22 ± 0.01 | EC50 (read-out: EC50): 1.82 ± 0.12 µM

Molecule: C=C1C[C@@]23CC[C@H]4[C@@](C)(CCC[C@@]4(C)C(=O)O[C@@H]4O[C@H](CO)[C@@H](O)[C@H](O[C@@H]5O[C@H](CO)[C@@H](O)[C@H](O)[C@H]5O)[C@H]4O[C@@H]4O[C@H](CO)[C@@H](O)[C@H](O)[C@H]4O)[C@@H]2CC[C@]1(O[C@@H]1O[C@H](CO)[C@@H](O)[C@H](O[C@@H]2O[C@H](CO)[C@@H](O)[C@H](O)[C@H]2O)[C@H]1O[C@@H]1O[C@H](CO)[C@@H](O)[C@H](O)[C@H]1O)C3 [Rebaudioside M, rebaudioside M]
R1 = Variant EC50/WT EC50: 1.8 | Max ΔF/F0: 0.54 ± 0.03 | EC50 (read-out: EC50): 71.8 ± 9.6 µM

Molecule: thaumatin
R1 = Variant EC50/WT EC50: 3.0 | Max ΔF/F0: 0.42 ± 0.03

More lines, now with the values ahead:

R1 = Variant EC50/WT EC50: 0.9 | Max ΔF/F0: 1.90 ± 0.30 | EC50 (read-out: EC50): 12.1 ± 6.1 µM
Molecule: C=C(C)[C@@H]1CC=C(/C=N/O)CC1 [Perillartine, perillartine]

R1 = Variant EC50/WT EC50: 2.3 | Max ΔF/F0: 0.18 ± 0.01 | EC50 (read-out: EC50): 252 ± 36 µM
Molecule: OC[C@H]1O[C@H](O[C@]2(CCl)O[C@H](CCl)[C@@H](O)[C@@H]2O)[C@H](O)[C@@H](O)[C@H]1Cl [Sucralose]

R1 = Variant EC50/WT EC50: 1.9 | EC50 (brazzein): 212.2 ± 8.6 µg/mL | Max ΔF/F0: 0.65 ± 0.01
Molecule: brazzein (QDKCKKVYENYPVSKCQLANQCNYDCKLDKHARSGECFYDEKRNLQCICDYCEY; ends and bridges not checked; cysteine pairing not given here; UniProt P56552 1-54, looked up) [sweet-tasting protein obtained by recombinant production using the yeast Pichia pastoris]

EC50 (read-out: EC50): 31.2 ± 3.5 µM
B1: thaumatin (protein)
chain: ATFEIVNRCSYTVWAAASKGDAALDAGGRQLNSGESWTINVEPGTKGGKIWARTDCYFDDSGSGICKTGDCGGLLRCKRFGRPPTTLAEFSLNQYGKDYIDISNIKGFNVPMDFSPTTRGCRGVRCAADIVGQCPAKLKAPGGGCNDACTVFQTSEYCCTTGKCGPTEYSRFFKRLCPDAFSYVLDKPTTVTCPGSSNYRVTFCPTA
modifications: Eight disulfides
notes: sweet-tasting plant protein, E957
